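In this assay, cells in 96-well plates receive the compound at five concentrations for 48 hours. Endpoints are linearly interpolated between the surrounding concentrations. GI50 is the concentration that inhibits growth by half. The concentration for full growth arrest is given as TGI.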
What was measured:
Assay in all cases: NCI tumour cell line growth inhibition, 48 h
[1] = test system: CAKI-1 renal
[2] = test system: HCT-116 colon
[3] = test system: SN12C renal
[4] = test system: ACHN renal
[5] = test system: SW-620 colon
[6] = test system: SF-268 CNS
[7] = test system: UACC-257 melanoma
[8] = test system: RPMI-8226 leukemia
[9] = test system: SF-539 CNS
[10] = test system: K-562 leukemia

| SMILES | GI50 [1] [µM] | TGI [1] [µM] | GI50 [2] [µM] | TGI [2] [µM] | GI50 [3] [µM] | TGI [3] [µM] | GI50 [4] [µM] | TGI [4] [µM] | GI50 [5] [µM] | TGI [5] [µM] | GI50 [6] [µM] | TGI [6] [µM] | GI50 [7] [µM] | TGI [7] [µM] | GI50 [8] [µM] | TGI [8] [µM] | GI50 [9] [µM] | TGI [9] [µM] | GI50 [10] [µM] | TGI [10] [µM] |
| --- | --- | --- | --- | --- | --- | --- | --- | --- | --- | --- | --- | --- | --- | --- | --- | --- | --- | --- | --- | --- |
| COc1ccc(Cc2cnc(NC(=O)c3ccc4c(c3)OCCO4)s2)cc1 | < 0.0123 | 15.6 | 0.032 | > 38.8 | 0.0556 | > 100 | 0.0553 | > 100 | 0.0338 | > 100 | 0.211 | > 100 | 4.83 | > 100 | 0.0499 | > 100 | 0.0257 | 0.714 | 0.0157 | > 100 |
| OCC(O)CNc1ccnc2cc(Cl)ccc12 (configuration not stated) |  | > 100 |  | > 100 |  | > 100 |  | > 100 |  | > 100 |  | > 100 |  | > 100 |  | > 100 |  | > 100 |  | > 100 |
| Nc1nc(N)nc(CCCc2nc(N)nc(N)n2)n1 |  | > 100 |  | > 100 |  | > 100 |  | > 100 |  | > 100 |  | > 100 |  | > 100 |  | > 100 |  | > 100 |  | > 100 |
| CCOC(=O)/C(=C/c1cccc(C#N)c1)N(CC)CC |  | > 100 |  | > 100 |  | > 100 |  | > 100 |  | > 100 |  | > 100 |  | > 100 |  | > 100 |  | > 100 |  | > 100 |
| COC(=O)CCC1=C(CC(=O)OC)C(C)=N/C1=C\c1[nH]c(-c2ccc[nH]2)cc1OC | 3.07 | 11.6 | 1.36 | 11.5 | 11.1 | 24.9 | 4.26 | 15.6 | 3.63 | 18 | 5.95 | 21.3 | 4.47 | 17 | 1.44 | 4.91 | 5.63 | 20.6 | 2.7 | 12.5 |
| CC1=C(C(=O)Nc2ccccc2)C(c2ccc(C3C(C(=O)Nc4ccccc4)=C(C)NC(C)=C3C(=O)Nc3ccccc3)cc2)C(C(=O)Nc2ccccc2)=C(C)N1 |  | 14.4 |  | 4.52 |  | 4.71 |  | 4.2 |  | 5.56 |  | 5.7 |  | 5.06 |  | 13.8 |  | 5.97 |  | > 53 |
| COC(=O)c1cccc2cccc(C(=O)Nc3ccc(Cl)cc3)c12 |  | > 100 |  | > 100 |  | > 100 |  | > 100 |  | > 66.8 |  | > 100 |  | > 100 |  | 33.7 |  | > 100 |  | > 33 |
| O=C(NO)c1ccc(CN(c2cnccn2)c2cnccn2)cc1 | 12.7 | 40.1 | 6.04 | 28.9 | 18.3 | 42.5 | 12.9 | 27.4 | 12.5 | 33.7 | 16.3 | 32.7 | 5.77 | 22.2 | 8.68 | > 100 | 14.1 | 34.6 | 13 | > 100 |
| Oc1ccc(Br)cc1C=Nc1ccc(N=Cc2cc(Br)ccc2O)cc1 |  | > 100 |  | > 100 |  | > 100 |  | > 100 |  | > 100 |  | > 100 |  | > 100 |  | > 100 |  | > 100 |  | > 100 |
| S=C1SC2=Nc3ccccc3CN2C2=NCCN12 | > 100 | > 100 | 52.8 | > 100 | > 100 | > 100 | > 100 | > 100 | 39.8 | > 100 | > 100 | > 100 | > 100 | > 100 | > 100 | > 100 | > 100 | > 100 | 32.8 | > 100 |
| COc1ccc(/C=C(/c2ccccc2)[N+](=O)[O-])cc1 | 1.55 | 3.28 | 1.03 | 2.29 | 1.36 | 2.9 | 1.55 | 2.9 | 1.34 | 3.18 | 1.82 | 3.77 | 1.6 | 3.4 | 0.486 | 3.01 | 1.77 | 3.18 | 0.393 | > 100 |
| Clc1ccc(N=CNc2ccc(-c3nc4ccccc4o3)cc2)cc1 | 15.5 | 39.2 | > 100 | > 100 | 36.7 | > 100 | 24.4 | > 100 | 2.9 | 8.16 | 12.7 | 39 | 32.4 | > 100 | 23.7 | > 100 | 14.8 | 45.7 | 32.6 | > 100 |
| O=C1C(=O)N(c2cc(Cl)ccc2Cl)C(=O)C(=O)C1c1nc2ccccc2o1 |  | > 100 |  | > 100 |  | > 100 |  | > 100 |  | > 100 |  | > 100 |  | > 100 |  | > 100 |  | > 100 |  | > 100 |
| CCCCCCCCCCN1CCC(N2CCCCC2)CC1 | 1.66 | 3.94 | 1.27 |  | 4.81 | 19.3 | 4.31 | 13.7 | 1.92 | 3.97 | 4.1 | 17 | 1.76 | 3.24 | 1.83 | 5.21 | 1.48 | 2.88 | 1.28 | 3.44 |
| Nc1ccccc1SC1CC(=O)N(c2ccc(Cl)c(Cl)c2)C1=O (configuration not stated) | 21.7 | > 100 | 24.2 | > 100 | 28.5 | > 100 | 19.4 | 74.9 | 56.5 | > 100 | 29.7 | > 100 | 31.8 | > 100 | 10.6 | > 100 | 63.6 | > 100 | 15 | > 100 |
| N#CC(C(=O)CCC(=O)Nc1cccc(C(F)(F)F)c1)c1ccc(Cl)cc1 (configuration not stated) |  | > 100 |  | > 100 |  | > 100 |  | > 100 |  | > 100 |  | > 100 |  | > 100 |  | > 100 |  | > 100 |  | > 100 |

| SMILES | GI50 [1] [µM] | TGI [1] [µM] | GI50 [2] [µM] | TGI [2] [µM] | GI50 [3] [µM] | TGI [3] [µM] | GI50 [4] [µM] | TGI [4] [µM] | GI50 [5] [µM] | TGI [5] [µM] | GI50 [6] [µM] | TGI [6] [µM] | GI50 [7] [µM] | TGI [7] [µM] | GI50 [8] [µM] | TGI [8] [µM] | GI50 [9] [µM] | TGI [9] [µM] | GI50 [10] [µM] | TGI [10] [µM] |
| --- | --- | --- | --- | --- | --- | --- | --- | --- | --- | --- | --- | --- | --- | --- | --- | --- | --- | --- | --- | --- |
| CCN(CC)CCNC(=O)c1ccc(C)c(OCc2ccccc2)c1[N+](=O)[O-] |  | > 71.1 |  | 47.8 |  | > 100 |  | > 89.6 |  | 44 |  | > 100 |  | 36.3 |  | 72.6 |  | 70.9 |  | 49.2 |
| CC/C=C/C/C=C/C/C=C/C/C=C/C/C=C/C/C=C/CCC(=O)Nc1ccn([C@@H]2O[C@H](CO)[C@@H](O)C2(F)F)c(=O)n1 | 0.0341 | 14.8 | 0.0873 | 29.8 | 0.126 | 8.78 | < 0.0132 | 14.6 | 0.148 | 47.6 | 0.0631 | 26.3 | 5.05 | 46.4 | 0.245 | 39 | 0.0425 | 5.71 | 0.16 | 33.4 |
| COC(=O)/C(=C\c1ccc(N(CCC#N)CCC#N)cc1)NC(=O)c1cc([N+](=O)[O-])ccc1Cl |  | > 100 |  | > 100 |  | > 100 |  | > 100 |  | > 100 |  | > 100 |  | > 100 |  | > 100 |  | > 100 |  | > 100 |
| C=C1CC[C@@H](C(C)C)C[C@@H]2[C@H]([C@H](O)C[C@]2(C)O)[C@@]2(C)CC[C@@H]1O2 | 0.792 | 18.7 | 16.7 | 30.3 | 11.2 | 23.3 | 16.5 | 30 | 20.6 | 39.9 | 16.5 | 30.1 | 16.2 | 31.3 | 3.38 | 17.2 | 24.4 | 43.3 | 15.8 | 29.2 |
| O=C(OCC(OC(=O)c1ccccc1)C(OC(=O)c1ccccc1)C(OC(=O)c1ccccc1)c1cnn(-c2ccccc2)n1)c1ccccc1 (configuration not stated) |  | > 100 |  | > 100 |  | > 100 |  | > 100 |  | > 100 |  | > 100 |  | > 100 |  | > 100 |  | > 100 |  | > 100 |
| NC(=S)N/N=C/c1cc(-c2cccc(N)c2)ccn1 | 0.972 | 10.3 | 1.99 | 27.3 | 2.52 | > 100 | 1.06 | 16.1 | 3.45 | > 81.8 | 1.02 | > 70.7 | 2.15 | > 28.6 | 0.446 | 28.7 | 0.675 | 6.17 | 0.541 | > 100 |
| O=C(NCc1ccc(S(=O)(=O)c2cc(F)cc(F)c2)cc1)c1ccc2nccn2c1 | > 43.3 | > 100 | < 0.01 | > 100 | < 0.01 | > 100 | 21.1 | > 100 | < 0.01 | > 100 | 28.4 | > 100 | > 59.1 | > 100 |  | > 100 | < 0.01 | > 42.9 | 0.0103 | > 100 |
| C=CCn1c2c(sc1=S)C(S)N=CN2 (configuration not stated) |  | > 100 |  | > 100 |  | > 100 |  | > 100 |  | > 100 |  | > 100 |  | > 100 |  | > 100 |  | > 100 |  | > 100 |
| O=C(Nc1ccc(Cl)c(Cl)c1)Nc1ccccc1O | 3.72 | 20.4 | 7.22 | 33.5 | 8.4 | 25.1 | 3.9 | 51.5 | 5.42 | 19.5 | 9.59 | 27.4 | 6.6 | 25 | 3.37 | 32.3 | 12.4 | 30.4 | 3.4 | 76.8 |
| CCOC(=O)Cn1c(=O)n(C)c(=O)c2c1ncn2Cc1ccccc1 |  | > 100 |  | > 100 |  | > 100 |  | > 100 |  | > 100 |  | > 100 |  |  |  | > 100 |  | > 100 |  | > 100 |
| CO/N=C(/C)c1cccc(Nc2cc(-c3ccccc3)nc3ccc(OC)cc23)c1 | 3.18 | 10.9 | 4.25 | 18.4 | 2.9 | 9.67 | 14.1 | 31.5 | 4.74 | 29.6 | 3.64 | 14.1 | 18.4 | 43.2 | 3.12 | 8.28 | 2.45 | 4.89 | 2.72 | > 100 |
| N#Cc1ccc(OC(=O)Nc2ccc(Cl)c(Cl)c2)cc1 | 3.4 | 18.2 | 3.4 | > 100 | 3.09 | 25.8 | 2.97 | 14.5 | 3.31 | > 100 | 5.27 | > 100 | 4.07 | 23.9 | 2.43 | 6.77 | 4.43 | 33 | 3.4 | > 100 |
| CC[C@@]1(O)C(=O)OCc2c1cc1n(c2=O)Cc2c-1nc1cc(F)c(C)c3c1c2[C@@H](N)CC3 | < 0.01 | 0.101 | < 0.01 | 12.3 | < 0.01 | > 100 | < 0.01 | 0.026 | < 0.01 | > 100 | < 0.01 | 2.17 | < 0.0151 | 0.981 | 0.0109 | 1.58 | < 0.01 | 0.0187 | < 0.0117 | > 100 |
| Cc1nn(C(=O)c2ccc(Cl)cc2)c2c1C(c1ccc(O)cc1)SC(N)=N2 (configuration not stated) |  | > 10 |  | > 10 |  | > 10 |  | > 10 |  | > 10 |  | > 10 |  | > 10 |  | > 10 |  | > 10 |  | > 10 |
| Cc1ncc([N+](=O)[O-])n1CCNS(=O)(=O)CCCn1ncnc1[N+](=O)[O-] |  | > 100 |  | > 100 |  | > 100 |  | > 100 |  | > 100 |  | > 100 |  | > 100 |  | > 100 |  | > 100 |  | > 100 |
